This test has as its target T1, human capsaicin receptor (Homo sapiens, UniProt Q8NER1).
T1 construct: pBK-CMV expression construct encoding the full length human capsaicin receptor; expressed in transfected cells
Put plainly: Calcium mobilization assay, determination of antagonist activity (Example 6). To be noted: Table II; determined as described in Example 6 (antagonist activity); "*" = 1 micromolar or less. It is filed as cell-based. Put shortly:
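Antagonism measured as inhibition of capsaicin-evoked (final concentration = EC50, from an 8-point 1 nM–3 μM curve) Fluo-3 calcium signal in stable hVR1-HEK293 cells. Test compounds at 1–5 μM final, 0.5–6 h dark preincubation at room temperature. IC50 = concentration giving 50% reduction versus agonist-only response.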
In general terms: A change in cytosolic calcium serves as a functional read-out for many receptors and channels.

The IC50 is the concentration needed to halve the response being measured.

T1 sequence (Q8NER1 whole entry): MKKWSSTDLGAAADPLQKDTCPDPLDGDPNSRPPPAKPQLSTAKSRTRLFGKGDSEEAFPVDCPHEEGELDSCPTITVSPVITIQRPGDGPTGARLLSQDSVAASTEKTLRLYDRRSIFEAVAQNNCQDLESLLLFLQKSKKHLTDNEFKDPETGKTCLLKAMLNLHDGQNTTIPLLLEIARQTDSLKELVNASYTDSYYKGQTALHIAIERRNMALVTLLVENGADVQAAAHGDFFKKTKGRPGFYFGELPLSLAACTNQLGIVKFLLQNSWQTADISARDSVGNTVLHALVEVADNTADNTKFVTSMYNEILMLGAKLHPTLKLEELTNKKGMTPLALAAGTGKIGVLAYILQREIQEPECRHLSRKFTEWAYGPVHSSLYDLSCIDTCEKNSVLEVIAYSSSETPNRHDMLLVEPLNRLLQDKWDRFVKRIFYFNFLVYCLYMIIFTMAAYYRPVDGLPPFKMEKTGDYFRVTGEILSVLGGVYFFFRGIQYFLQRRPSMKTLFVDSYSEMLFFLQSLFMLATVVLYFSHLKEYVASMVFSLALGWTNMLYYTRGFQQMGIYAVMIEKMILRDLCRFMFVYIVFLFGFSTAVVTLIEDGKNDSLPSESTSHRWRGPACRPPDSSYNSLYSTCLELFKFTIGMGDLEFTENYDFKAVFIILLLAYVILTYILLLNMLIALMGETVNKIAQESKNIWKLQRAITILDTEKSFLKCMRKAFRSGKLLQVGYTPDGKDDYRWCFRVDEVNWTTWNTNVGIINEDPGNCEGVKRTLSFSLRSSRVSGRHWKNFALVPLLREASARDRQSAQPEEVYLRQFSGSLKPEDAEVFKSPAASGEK

For `CC1CCCN1c1nc(-c2ccc(F)c(Cl)c2)cc(N2CCN(c3nccnc3Cl)C[C@H]2C)n1` (stereo partly shown) [Example 908], the IC50 was at most 1 µM.

In the case of `C[C@@H]1CN(c2nccnc2Cl)CCN1c1cc(-c2ccc(F)c(Cl)c2)nc(N2CCCC2)n1` [Example 909, 4-(3-chloro-4-fluorophenyl)-6-[(2R)-4-(3-chloropyrazin-2-yl)-2-methylpiperazin-1-yl]-2-pyrrolidin-1-ylpyrimidine], the 50% inhibitory concentration (IC50) was at most 1 µM.

On to `C[C@@H]1CN(c2nccnc2Cl)CCN1c1cc(-c2ccc(F)c(Cl)c2)nc(N2CCOCC2)n1` [Example 910, 4-{4-(3-chloro-4-fluorophenyl)-6-[(2R)-4-(3-chloropyrazin-2-yl)-2-methylpiperazin-1-yl]pyrimidin-2-yl}morpholine], for which the IC50 was at most 1 µM.

As for `CC1CCCN1c1cc(-c2ccc(F)c(Cl)c2)nc(N2CCN(c3nccnc3Cl)C[C@H]2C)n1` (stereo partly shown) [Example 911], the half-maximal inhibitory concentration (IC50) is at most 1 µM.

As for `Cc1cc(-c2cc(N3CCN(c4nccnc4Cl)C[C@H]3C)nc(Cl)n2)ccc1F` [Example 912, 2-chloro-4-[(2R)-4-(3-chloropyrazin-2-yl)-2-methylpiperazin-1-yl]-6-(4-fluoro-3-methylphenyl)pyrimidine], the IC50 was at most 1 µM.

For the compound `Cc1cc(-c2cc(N3CCN(c4nccnc4Cl)C[C@H]3C)nc(N3CCCC3)n2)ccc1F` [Example 914, 4-[(2R)-4-(3-chloropyrazin-2-yl)-2-methylpiperazin-1-yl]-6-(4-fluoro-3-methylphenyl)-2-pyrrolidin-1-ylpyrimidine], the IC50 is at most 1 µM.

Regarding `Cc1cc(-c2cc(N3CCN(c4nccnc4Cl)C[C@H]3C)nc(N3CCOCC3)n2)ccc1F` [Example 916, 4-[4-[(2R)-4-(3-chloropyrazin-2-yl)-2-methylpiperazin-1-yl]-6-(4-fluoro-3-methylphenyl)pyrimidin-2-yl]morpholine], the IC50 is at most 1 µM.

`Cc1cc(-c2cc(N3CCCC3C)nc(N3CCN(c4ncccc4Cl)C[C@@H]3C)n2)ccc1F` (stereo partly shown) [Example 917, 2-[4-(3-chloropyridin-2-yl)-2-methylpiperazin-1-yl]-4-(4-fluoro-3-methylphenyl)-6-(2-methylpyrrolidin-1-yl)pyrimidine]: the IC50 is at most 1 µM.

On to `COc1ccc(Cl)c(N2CCN(c3cc(-c4ccc(F)c(Cl)c4)nc(N4CCCC4C)n3)CC2)n1` (stereo not shown) [Example 918, 4-(3-chloro-4-fluorophenyl)-6-[4-(3-chloro-6-methoxypyridin-2-yl)piperazin-1-yl]-2-(2-methylpyrrolidin-1-yl)pyrimidine], for which the IC50 was at most 1 µM.

In the case of `C[C@@H]1CN(c2nccnc2Cl)CCN1c1nc(Cl)cc(-c2ccc(F)cc2)n1` [Example 919, 4-chloro-2-[(2R)-4-(3-chloropyrazin-2-yl)-2-methylpiperazin-1-yl]-6-(4-fluorophenyl)pyrimidine], the IC50 is at most 1 µM.

`C[C@@H]1CN(c2nccnc2Cl)CCN1c1cc(-c2ccc(F)cc2)nc(Cl)n1` [Example 920, 2-chloro-4-[(2R)-4-(3-chloropyrazin-2-yl)-2-methylpiperazin-1-yl]-6-(4-fluorophenyl)pyrimidine]: the IC50 was at most 1 µM.

Consider `C[C@H]1CN(c2ncccc2Cl)CCN1c1cc(-c2ccc(F)c(F)c2)nc(N2CCCC2)n1` [Example 921, 4-[(2S)-4-(3-chloropyridin-2-yl)-2-methylpiperazin-1-yl]-6-(3,4-difluorophenyl)-2-pyrrolidin-1-ylpyrimidine], for which the IC50 was at most 1 µM.

`CC1CCCN1c1nc(-c2ccc(F)c(F)c2)cc(N2CCN(c3ncccc3Cl)C[C@@H]2C)n1` (stereo partly drawn) [Example 922, 4-[(2S)-4-(3-chloropyridin-2-yl)-2-methylpiperazin-1-yl]-6-(3,4-difluorophenyl)-2-(2-methylpyrrolidin-1-yl)pyrimidine]: the IC50 is at most 1 µM.

`C[C@H]1CN(c2ncccc2Cl)CCN1c1cc(-c2ccc(F)c(F)c2)nc(N2CCOCC2)n1` [Example 923, 4-[4-[(2S)-4-(3-chloropyridin-2-yl)-2-methylpiperazin-1-yl]-6-(3,4-difluorophenyl)pyrimidin-2-yl]morpholine]: the IC50 is at most 1 µM.

Turning to `Cc1cc(-c2cc(N3CCN(c4ncccc4Cl)C[C@H]3C)nc(N3CCC[C@H]3C)n2)ccc1F` [Example 924, 4-[(2R)-4-(3-chloropyridin-2-yl)-2-methylpiperazin-1-yl]-6-(4-fluoro-3-methylphenyl)-2-[(2R)-2-methylpyrrolidin-1-yl]pyrimidine], the IC50 is at most 1 µM.

Turning to `C[C@@H]1CN(c2ncccc2Cl)CCN1c1cc(-c2ccc(F)c(F)c2)nc(N2CCC[C@H]2C)n1` [Example 925, 4-[(2R)-4-(3-chloropyridin-2-yl)-2-methylpiperazin-1-yl]-6-(3,4-difluorophenyl)-2-[(2R)-2-methylpyrrolidin-1-yl]pyrimidine], the IC50 was at most 1 µM.

Turning to `CC1CCCN1c1nc(-c2ccc(F)cc2)cc(N2CCN(c3nccnc3Cl)C[C@H]2C)n1` (stereo partly shown) [Example 926, 4-[4-(3-chloropyrazin-2-yl)-2-methylpiperazin-1-yl]-6-(4-fluorophenyl)-2-(2-methylpyrrolidin-1-yl)pyrimidine], the IC50 was at most 1 µM.

Take `C[C@@H]1CN(c2nccnc2Cl)CCN1c1cc(-c2ccc(F)cc2)nc(N2CCC[C@H]2C)n1` [Example 927, 4-[(2R)-4-(3-chloropyrazin-2-yl)-2-methylpiperazin-1-yl]-6-(4-fluorophenyl)-2-[(2R)-2-methylpyrrolidin-1-yl]pyrimidine]: the IC50 is at most 1 µM.

With `C[C@@H]1CN(c2nccnc2Cl)CCN1c1cc(-c2ccc(F)cc2)nc(N2CCCC2)n1` [Example 928, 4-[(2R)-4-(3-chloropyrazin-2-yl)-2-methylpiperazin-1-yl]-6-(4-fluorophenyl)-2-pyrrolidin-1-ylpyrimidine], the IC50 is at most 1 µM.

As to `C[C@@H]1CN(c2nccnc2Cl)CCN1c1cc(-c2ccc(F)cc2)nc(N2CCOCC2)n1` [Example 929, 4-[4-[(2R)-4-(3-chloropyrazin-2-yl)-2-methylpiperazin-1-yl]-6-(4-fluorophenyl)pyrimidin-2-yl]morpholine], the IC50 was at most 1 µM.

`C[C@@H]1CCCN1c1nc(-c2ccc(F)c(F)c2)cc(N2CCN(c3ncccc3Cl)C[C@@H]2C)n1` [Example 930, 4-[(2S)-4-(3-chloropyridin-2-yl)-2-methylpiperazin-1-yl]-6-(3,4-difluorophenyl)-2-[(2R)-2-methylpyrrolidin-1-yl]pyrimidine]: the IC50 is at most 1 µM.

`Cc1cc(C#N)cnc1N1CCN(c2cc(-c3ccc(F)cc3)nc(N3CCCC3C)n2)CC1` (stereo not shown) [Example 931, 6-{4-[6-(4-fluorophenyl)-2-(2-methylpyrrolidin-1-yl)pyrimidin-4-yl]piperazin-1-yl}-5-methylnicotinonitrile]: the 50% inhibitory concentration (IC50) is at most 1 µM.

`Cc1cc(C#N)cnc1N1CCN(c2cc(-c3ccc(F)cc3)nc(N3CCCC3C)n2)[C@H](C)C1` (stereo partly shown) [Example 932, 6-{4-[6-(4-fluorophenyl)-2-(2-methylpyrrolidin-1-yl)pyrimidin-4-yl]-3-methylpiperazin-1-yl}-5-methylnicotinonitrile]: the IC50 was at most 1 µM.

For `CCNC(=O)c1cnc(N2CCN(c3cc(-c4ccc(F)c(Cl)c4)nc(N4CCCC4C)n3)[C@H](C)C2)c(Cl)c1` (stereo partly shown) [Example 933, 5-chloro-6-{4-[6-(3-chloro-4-fluorophenyl)-2-(2-methylpyrrolidin-1-yl)pyrimidin-4-yl]-3-methylpiperazin-1-yl}-N-ethylnicotinamide], the IC50 is at most 1 µM.

Consider `C[C@@H]1CN(c2ncccc2Cl)CCN1c1cc(-c2ccc(Cl)c(F)c2)nc(N2CCC[C@H]2C)n1` [Example 934, 4-(4-chloro-3-fluorophenyl)-6-[(2R)-4-(3-chloropyridin-2-yl)-2-methylpiperazin-1-yl]-2-[(2R)-2-methylpyrrolidin-1-yl]pyrimidine], for which the IC50 was at most 1 µM.

In the case of `C[C@@H]1CN(c2nccnc2Cl)CCN1c1cc(-c2ccc(F)c(F)c2)nc(N2CCC[C@H]2C)n1` [Example 935, 4-[(2R)-4-(3-chloropyrazin-2-yl)-2-methylpiperazin-1-yl]-6-(3,4-difluorophenyl)-2-[(2R)-2-methylpyrrolidin-1-yl]pyrimidine], the IC50 was at most 1 µM.

`C[C@@H]1CN(c2ncccc2C(F)(F)F)CCN1c1cc(-c2ccc(F)c(F)c2)nc(N2CCC[C@H]2C)n1` [Example 936, 4-(3,4-difluorophenyl)-2-[(2R)-2-methylpyrrolidin-1-yl]-6-{(2R)-2-methyl-4-[3-(trifluoromethyl)pyridin-2-yl]piperazin-1-yl}pyrimidine]: the IC50 was at most 1 µM.

`C[C@H]1CN(c2nccnc2Cl)CCN1c1cc(-c2ccc(F)c(F)c2)nc(N2CCCC2)n1` [Example 937, 4-[(2S)-4-(3-chloropyrazin-2-yl)-2-methylpiperazin-1-yl]-6-(3,4-difluorophenyl)-2-pyrrolidin-1-ylpyrimidine]: the IC50 is at most 1 µM.

As to `CC1CCCN1c1nc(-c2ccc(F)c(F)c2)cc(N2CCN(c3nccnc3Cl)C[C@@H]2C)n1` (stereo partly drawn) [Example 938, 4-[(2S)-4-(3-chloropyrazin-2-yl)-2-methylpiperazin-1-yl]-6-(3,4-difluorophenyl)-2-(2-methylpyrrolidin-1-yl)pyrimidine], the IC50 is at most 1 µM.

Turning to `C[C@@H]1CN(c2ncccc2Cl)CCN1c1cc(-c2ccc(F)c(Cl)c2)nc(N2CCC[C@H]2C)n1` [Example 940, 4-(3-chloro-4-fluorophenyl)-6-[(2R)-4-(3-chloropyridin-2-yl)-2-methylpiperazin-1-yl]-2-[(2R)-2-methylpyrrolidin-1-yl]pyrimidine], the IC50 is at most 1 µM.

Consider `C[C@@H]1CCCN1c1cc(-c2ccc(F)c(Cl)c2)nc(N2CCN(c3ncccc3Cl)C[C@H]2C)n1` [Example 941, 4-(3-chloro-4-fluorophenyl)-2-[(2R)-4-(3-chloropyridin-2-yl)-2-methylpiperazin-1-yl]-6-[(2R)-2-methylpyrrolidin-1-yl]pyrimidine], for which the concentration for half-maximal inhibition (IC50) is at most 1 µM.

The record behind these values is patent publication US7566712B2, “Biaryl piperazinyl-pyridine analogues” (Neurogen Corporation, priority 2003, dated 2009).
